Earlier results on one compound are cited in patent US20110190220A1, “Use of Defensin Alpha 1 and/or Defensin Alpha 4, as a Marker for Predicting Treatment Response and/or a Relapse in a Patient Suffering form Chronic Myeloid Leukemia” (priority 2008, published 2011).

Structures can show the parent of a compound that is named as a salt.

The data set concerns CML patients.

Regarding `Cc1ccc(NC(=O)c2ccc(CN3CCN(C)CC3)cc2)cc1Nc1nccc(-c2cccnc2)n1` [Imatinib, Imatinib mesylate], the “complete or nearly complete cytogenetic remission, share of patients” value (CML patients treated in chronic phase) is recorded as “up to 80%”. Also, for the setting “CML patients treated with imatinib”, the “CML patients who are or become resistant to treatment” value was “about 20%”.
